Measured values published in ChEMBL document CHEMBL1150606, “Cytotoxic sphingosine 4-sulfates from the sponge Spirastrella abata” (2002).
Values after ≈ are worked out from the molar mass of the structure shown.

Legend:
Type in all cases: functional
Settings in all cases: read-out: ED50 (the source's name)
A549 = test: Cytotoxicity against human A549 cells
SK-OV-3 = test: Cytotoxicity against human SKOV3 cells
SK-MEL-2 = test: Cytotoxicity against human SK-MEL-2 cells
XF498 = test: Cytotoxicity against human XF498 cells
HCT-15 = test: Cytotoxicity against human HCT15 cells

Compound | EC50 (A549) [µg/mL] | EC50 (SK-OV-3) [µg/mL] | EC50 (SK-MEL-2) [µg/mL] | EC50 (XF498) [µg/mL] | EC50 (HCT-15) [µg/mL]
CCCCCCCCCC/C=C/C[C@@H](OS(=O)(=O)O)[C@@H](O)[C@@H](N)CO | 0.3 (≈ 0.786 µM) | 0.3 (≈ 0.786 µM) | 0.3 (≈ 0.786 µM) | 0.3 (≈ 0.786 µM) | 0.3 (≈ 0.786 µM)
CCCCCCCCCCC/C=C/C[C@@H](OS(=O)(=O)O)[C@@H](O)[C@@H](N)CO | 9.9 (≈ 25 µM) | 8.2 (≈ 20.7 µM) | 4 (≈ 10.1 µM) | 4.6 (≈ 11.6 µM) | 3.7 (≈ 9.35 µM)
